In patent US11629146B2, “Substituted [1,2,4]triazolo[4,3-a]pyrazines as modulators of sodium channel activity” (Praxis Precision Medicines, Inc., priority 2016, dated 2023):
Like-named read-outs stand apart in the source and are kept apart here.

Experiments:
[1] = target: human NaV1.5 late sodium current (INaL) (Homo sapiens (Human), UniProt Q14524); assay: INaL inhibition at hNaV1.5, PatchXpress electrophysiology; format: cell-based; details: HEK-293 cells expressing recombinant human NaV1.5, HEK-293 cells expressing hNaV1.5, late current evoked by 300 nM ATX-II, read-out: INaL v1.5 (1 μM, % Inhibition)
human NaV1.6 (hNaV1.6) = human NaV1.6 (hNaV1.6) (Homo sapiens (Human), UniProt Q9UQD0); assay: INaL inhibition at hNaV1.6, PatchXpress electrophysiology; format: cell-based
Description: Functional characterization of exemplary compounds to modulate INaL expressed by the Nay 1.6 voltage-gated sodium channel was accomplished using the PatchXpress™ high throughput electrophysiology platform (Molecular Devices, Sunnyvale, Calif.). HEK-293 cells expressing recombinant, human NaV1.6 (hNaV1.6) were grown in DMEM/high-glucose Dulbecco's modified, 10% FBS, 2 mM sodium pyruvate, 10 mM HEPES and 400 μg/mL G418. Cells were grown to 50%-80% confluency prior to harvesting. […] The onboard liquid handling facility of the PatchXpress was used for dispensing cells and applying test compounds. Nay late currents were evoked by the application of 300 nM ATX-II. […] INaL amplitude and stability were determined by analyzing the mean current amplitude over the final 20 ms of the test pulse. […] Percent steady-state inhibition of INaL was calculated as: [(INaL_compound)/(INaL_control)]*100, where INaL_compound and INaL_control represent INaL recorded in the presence or absence of compound, respectively.

CYP1A2 = CYP1A2 (Homo sapiens (Human), UniProt P05177); assay: CYP1A2 inhibition in human liver microsomes; format: in vitro ADME; details: pooled human liver microsomes, marker substrate Phenacetin
Description: The specific marker metabolites are measured with LC/MS/MS. The remaining enzymatic activities and inhibitory potency IC50 are determined. Microsomes are removed out of the −80° C. freezer to thaw on ice and 20 μL of the substrates solution added to the corresponding wells. […] Then 158 μL of the HLM working solution was added to all wells of the incubation plate. The plate was pre-warmed for about 10 min using a 37° C. water bath. Then 20 μL of the NADPH cofactor solution was added to all incubation wells, mixed and incubated for 10 minutes at 37° C. water bath. The reaction is terminated by adding 400 μL cold stop solution (200 ng/mL Tolbutamide and 200 ng/mL Labetalol in ACN). […] Finally 200 μL of the supernatant was transferred to 100 μL HPLC water, shaken for 10 min and analyzed by LC/MS/MS. […] Equation for three parameters logistic sigmoidal curve: […]

[2] = PK rat clearance experiment; format: in vivo; details: male Sprague-Dawley rats, single intravenous bolus 0.5 mg/kg, plasma
Description: The IV dosing solution was prepared freshly on the dosing day. Test article (0.5 mg/kg) was prepared in a vehicle, for example, consisting of 5% DMSO/5% solutol/90% water. The concentrations of test article in all dosing solutions were determined by HPLC/UV. Three male Sprague-Dawley rats were used in this study. The animals were confirmed healthy before being assigned to the study. Each animal was given a unique identification number which was marked on the tail or the ear, and written on the cage card. All animals were fasted overnight before dosing and the food was returned at 4 hours post dosing. Water was provided to all animals ad libitum during the fasting period. Animals were weighed prior to dose administration on the day of dosing for calculating the actual dose volume. The body weights were in the range from 212 g to 223 g for males. All animals received test article by single intravenous bolus administration at 0.5 mg/kg. Approximately 0.2 mL blood was collected at each time point via jugular vein from each study animal. […] All blood samples were transferred into pre-labeled plastic micro centrifuge tubes and mixed with the pre-loaded anti-coagulant K2EDTA (5 μL, 0.5 M). Plasma samples were then prepared by centrifuging the blood samples. All plasma samples were then quickly frozen over dry ice and kept at −60° C. or lower until LC/MS/MS analysis. The concentrations of test article in plasma were determined by using a quantitative bioanalytical LC/MS/MS method. The lower limit of quantitation (LLOQ) for test article in plasma was 1 ng/mL, and the upper limit of quantitation (ULOQ) in plasma was 3000 ng/mL. The plasma concentration of test article in rats was subjected to a non compartmental pharmacokinetic analysis by using the Phoenix WinNonlin software (version 6.3, Pharsight, Mountain View, Calif.). The linear/log trapezoidal rule was applied in obtaining the PK parameters.

[3] = HEK293, 1 μM, HEK-293 cells expressing hNaV1.6, late current evoked by 300 nM ATX-II, read-out: INaL v1.6 (1 μM, % Inhibition)
[4] = HEK293, read-out: INaL v1.6 (1 μM, % Inhibition)

CYP1A2, sequence (P05177 whole entry): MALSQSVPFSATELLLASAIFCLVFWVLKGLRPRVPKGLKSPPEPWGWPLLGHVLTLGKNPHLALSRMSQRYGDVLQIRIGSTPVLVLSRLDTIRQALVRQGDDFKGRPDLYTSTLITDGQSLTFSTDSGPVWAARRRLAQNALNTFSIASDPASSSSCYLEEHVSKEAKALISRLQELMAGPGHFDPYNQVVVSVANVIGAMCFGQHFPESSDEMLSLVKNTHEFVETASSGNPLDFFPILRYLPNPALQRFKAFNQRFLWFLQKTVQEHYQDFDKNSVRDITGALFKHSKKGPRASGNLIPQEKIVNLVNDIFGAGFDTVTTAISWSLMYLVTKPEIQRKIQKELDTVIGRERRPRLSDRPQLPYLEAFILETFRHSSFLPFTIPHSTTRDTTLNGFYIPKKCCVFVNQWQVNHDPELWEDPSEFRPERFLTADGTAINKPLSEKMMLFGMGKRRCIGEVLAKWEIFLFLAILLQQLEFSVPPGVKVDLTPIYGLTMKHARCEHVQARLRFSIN
human NaV1.5 late sodium current (INaL), sequence (Q14524 whole entry): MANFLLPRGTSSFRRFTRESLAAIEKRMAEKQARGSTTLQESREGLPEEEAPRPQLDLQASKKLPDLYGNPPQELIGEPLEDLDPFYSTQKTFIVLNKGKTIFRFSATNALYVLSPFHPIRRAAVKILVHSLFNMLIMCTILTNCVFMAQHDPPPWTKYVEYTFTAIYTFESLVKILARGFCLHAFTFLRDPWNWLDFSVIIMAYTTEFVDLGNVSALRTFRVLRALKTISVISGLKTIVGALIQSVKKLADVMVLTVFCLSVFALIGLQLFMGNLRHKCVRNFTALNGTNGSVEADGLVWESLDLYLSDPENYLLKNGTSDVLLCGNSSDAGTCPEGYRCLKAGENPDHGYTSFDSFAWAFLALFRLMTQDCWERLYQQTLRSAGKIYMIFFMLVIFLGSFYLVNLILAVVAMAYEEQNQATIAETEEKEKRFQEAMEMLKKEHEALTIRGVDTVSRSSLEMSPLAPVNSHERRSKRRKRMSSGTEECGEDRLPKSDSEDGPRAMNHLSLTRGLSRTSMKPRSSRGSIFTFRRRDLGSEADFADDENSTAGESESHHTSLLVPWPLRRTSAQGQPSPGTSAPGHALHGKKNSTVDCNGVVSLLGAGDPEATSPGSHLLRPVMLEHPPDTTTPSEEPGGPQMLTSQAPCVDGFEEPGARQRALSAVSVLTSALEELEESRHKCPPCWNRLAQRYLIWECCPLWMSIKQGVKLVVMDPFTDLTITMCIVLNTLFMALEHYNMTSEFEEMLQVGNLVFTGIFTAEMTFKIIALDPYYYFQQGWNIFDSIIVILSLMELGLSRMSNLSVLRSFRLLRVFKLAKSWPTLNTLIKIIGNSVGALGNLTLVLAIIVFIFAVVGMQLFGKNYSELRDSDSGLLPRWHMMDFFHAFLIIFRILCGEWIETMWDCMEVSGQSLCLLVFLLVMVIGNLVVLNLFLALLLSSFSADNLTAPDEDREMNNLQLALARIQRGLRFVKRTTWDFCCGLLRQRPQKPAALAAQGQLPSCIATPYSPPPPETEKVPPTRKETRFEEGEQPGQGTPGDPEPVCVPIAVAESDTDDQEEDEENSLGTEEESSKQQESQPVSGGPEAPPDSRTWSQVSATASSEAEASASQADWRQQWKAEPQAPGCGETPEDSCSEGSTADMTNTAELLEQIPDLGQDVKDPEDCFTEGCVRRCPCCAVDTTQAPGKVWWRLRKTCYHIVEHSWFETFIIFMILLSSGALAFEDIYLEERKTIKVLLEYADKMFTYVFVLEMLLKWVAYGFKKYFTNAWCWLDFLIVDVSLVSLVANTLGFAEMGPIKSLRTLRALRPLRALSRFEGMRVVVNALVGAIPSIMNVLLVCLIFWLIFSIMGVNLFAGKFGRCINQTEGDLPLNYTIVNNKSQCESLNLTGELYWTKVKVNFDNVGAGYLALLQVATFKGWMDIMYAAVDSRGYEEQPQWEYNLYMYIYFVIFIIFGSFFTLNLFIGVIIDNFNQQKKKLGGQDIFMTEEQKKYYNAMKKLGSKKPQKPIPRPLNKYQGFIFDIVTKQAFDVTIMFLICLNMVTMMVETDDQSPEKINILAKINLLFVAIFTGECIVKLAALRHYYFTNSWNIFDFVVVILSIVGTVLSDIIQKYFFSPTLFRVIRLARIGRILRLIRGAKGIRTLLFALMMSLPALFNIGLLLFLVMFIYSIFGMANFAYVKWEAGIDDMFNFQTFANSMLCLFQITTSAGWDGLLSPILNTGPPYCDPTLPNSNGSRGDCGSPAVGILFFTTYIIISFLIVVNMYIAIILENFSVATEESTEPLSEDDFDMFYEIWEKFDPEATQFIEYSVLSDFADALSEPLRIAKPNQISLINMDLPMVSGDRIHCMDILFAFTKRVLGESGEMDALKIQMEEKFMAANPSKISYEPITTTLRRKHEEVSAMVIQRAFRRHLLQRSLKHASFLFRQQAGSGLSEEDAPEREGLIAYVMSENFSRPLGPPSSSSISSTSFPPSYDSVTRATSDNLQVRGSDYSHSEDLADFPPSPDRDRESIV
human NaV1.6 (hNaV1.6), sequence (Q9UQD0 whole entry): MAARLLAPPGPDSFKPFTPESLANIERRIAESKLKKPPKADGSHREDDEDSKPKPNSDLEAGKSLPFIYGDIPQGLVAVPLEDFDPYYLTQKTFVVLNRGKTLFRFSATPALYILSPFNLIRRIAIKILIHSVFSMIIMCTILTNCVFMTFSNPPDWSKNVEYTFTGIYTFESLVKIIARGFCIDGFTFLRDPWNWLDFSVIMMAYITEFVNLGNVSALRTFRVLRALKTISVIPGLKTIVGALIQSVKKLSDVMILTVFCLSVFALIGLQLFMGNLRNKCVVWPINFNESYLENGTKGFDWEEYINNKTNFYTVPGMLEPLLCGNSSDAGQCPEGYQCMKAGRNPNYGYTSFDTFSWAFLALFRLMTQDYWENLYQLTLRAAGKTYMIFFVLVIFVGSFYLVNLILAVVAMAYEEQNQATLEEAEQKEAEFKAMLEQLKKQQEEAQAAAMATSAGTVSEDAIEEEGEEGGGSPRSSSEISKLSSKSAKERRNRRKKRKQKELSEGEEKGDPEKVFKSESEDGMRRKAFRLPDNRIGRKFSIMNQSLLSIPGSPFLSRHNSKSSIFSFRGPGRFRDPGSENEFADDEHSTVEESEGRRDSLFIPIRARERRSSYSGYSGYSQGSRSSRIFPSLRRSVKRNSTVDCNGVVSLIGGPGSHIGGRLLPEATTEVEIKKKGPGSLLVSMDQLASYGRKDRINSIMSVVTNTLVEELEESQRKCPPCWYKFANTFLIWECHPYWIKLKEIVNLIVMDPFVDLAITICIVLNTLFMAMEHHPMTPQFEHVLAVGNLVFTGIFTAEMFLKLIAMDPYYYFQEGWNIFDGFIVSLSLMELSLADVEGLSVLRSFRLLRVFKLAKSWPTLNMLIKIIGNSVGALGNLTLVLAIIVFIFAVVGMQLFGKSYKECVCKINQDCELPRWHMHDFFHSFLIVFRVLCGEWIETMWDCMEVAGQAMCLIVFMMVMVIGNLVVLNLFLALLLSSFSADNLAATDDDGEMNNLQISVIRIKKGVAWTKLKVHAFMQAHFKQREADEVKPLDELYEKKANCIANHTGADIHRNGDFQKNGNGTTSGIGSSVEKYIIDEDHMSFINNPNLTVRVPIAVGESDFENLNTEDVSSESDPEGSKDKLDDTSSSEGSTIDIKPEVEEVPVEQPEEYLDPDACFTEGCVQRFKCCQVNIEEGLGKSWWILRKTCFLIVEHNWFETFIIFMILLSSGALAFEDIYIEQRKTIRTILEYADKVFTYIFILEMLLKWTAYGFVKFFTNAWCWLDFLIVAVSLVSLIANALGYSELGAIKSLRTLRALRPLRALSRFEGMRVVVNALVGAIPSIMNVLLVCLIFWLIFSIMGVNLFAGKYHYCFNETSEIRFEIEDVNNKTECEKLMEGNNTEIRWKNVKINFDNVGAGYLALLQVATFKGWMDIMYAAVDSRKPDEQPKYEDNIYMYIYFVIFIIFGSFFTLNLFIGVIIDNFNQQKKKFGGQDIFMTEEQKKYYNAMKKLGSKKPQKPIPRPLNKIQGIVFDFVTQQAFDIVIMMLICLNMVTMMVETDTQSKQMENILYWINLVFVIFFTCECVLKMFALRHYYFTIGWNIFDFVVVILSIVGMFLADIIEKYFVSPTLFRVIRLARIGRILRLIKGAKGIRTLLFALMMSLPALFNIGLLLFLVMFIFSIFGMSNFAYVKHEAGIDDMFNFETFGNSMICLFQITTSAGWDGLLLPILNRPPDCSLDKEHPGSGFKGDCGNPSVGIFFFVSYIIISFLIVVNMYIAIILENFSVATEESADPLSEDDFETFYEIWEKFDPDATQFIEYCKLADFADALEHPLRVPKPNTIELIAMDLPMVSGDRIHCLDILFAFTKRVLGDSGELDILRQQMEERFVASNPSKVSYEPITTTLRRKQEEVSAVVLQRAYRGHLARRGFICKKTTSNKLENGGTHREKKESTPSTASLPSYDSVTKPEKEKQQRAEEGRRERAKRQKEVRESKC

Structure (SMILES)	inhibition at 1 µM (human NaV1.6 (hNaV1.6); [3]) [%]	IC50 (CYP1A2) [µM]	clearance [2] [mL/min/kg]	half-life [2] [h]	inhibition at 1 µM [1] [%]	inhibition at 1 µM (human NaV1.6 (hNaV1.6); [4]) [%]
FC(F)(F)Oc1ccc(-c2ccc3nnc(CC4CCCO4)n3n2)cc1 (stereo not shown) [Compound 11]	< 30	–	–	–	< 50	–
Cc1cc(C2(C#N)CC2)ccc1-c1ccc2nnc(C(F)(F)F)n2n1 [Compound 105]	–	15 to 30	–	–	–	30 to 70
FC(F)(F)COc1ccc(-c2ccc3nnc(C(F)(F)C(F)(F)F)n3n2)cn1 [Compound 9]	30 to 70	–	–	–	> 50	–
OCc1nnc2ccc(-c3ccc(OC(F)(F)F)cc3)nn12 [Compound 21]	–	–	–	–	< 50	< 30
COCc1cc(C(F)(F)F)ccc1-c1cn2c(C(F)(F)F)nnc2cn1 [Compound 113]	> 70	1 to 15	–	–	–	–
Cc1cc(OC(F)(F)F)ccc1-c1cn2c(C(F)F)nnc2cn1 [Compound 49]	> 70	15 to 30	7.6	8.1	–	–
Fc1cc(OC(F)(F)F)ccc1-c1cn2c(C(F)(F)F)nnc2cn1 [Compound 72]	< 30	1 to 15	–	–	–	–
C[C@H](Oc1ncc(-c2cn3c(C(F)(F)F)nnc3cn2)cc1F)C(F)(F)F (single isomer, unassigned) [Compound 125]	> 70	> 30	–	–	–	–
Cc1cc(C(F)(F)F)ccc1-c1ccc2nnc(C(F)(F)F)n2n1 [Compound 3]	> 70	1 to 15	6	6.7	> 50	–
C[C@@H](Oc1ncc(-c2ccc3nnc(C(F)(F)F)n3n2)cc1F)C(F)(F)F (single isomer, unassigned) [Compound 126]	> 70	> 30	–	–	–	–
N#CC1(c2ccc(-c3ccc4nnc(C(F)(F)F)n4n3)cc2)CC1 [Compound 12]	> 70	1 to 15	5.1	1.4	> 50	–
FC(F)(F)Oc1ccc(-c2cn3c(C4(F)CC4)nnc3cn2)cc1 [Compound 112]	30 to 70	1 to 15	–	–	–	–
FC(F)(F)c1ccc(-c2ccc3nnc(C(F)(F)F)n3n2)cc1 [Compound 1]	> 70	–	–	–	> 50	–
COC(F)(F)c1nnc2ccc(-c3ccc(OC(F)(F)F)cc3)nn12 [Compound 41]	> 70	< 1	–	–	–	–
FC(F)(F)c1nnc2ccc(-c3ccc([C@@H]4CC4(F)F)cc3)nn12 (single isomer, unassigned) [Compound 122]	–	< 1	–	–	–	> 70
Fc1cc(-c2ccc3nnc(C(F)(F)F)n3n2)ccc1OC(F)(F)F [Compound 31]	> 70	–	2	15.4	> 50	–
FC(F)(F)Oc1ccc(-c2ccc3nnc(C[C@@H]4CCCCO4)n3n2)cc1 (single isomer, unassigned) [Compound 43]	30 to 70	> 30	–	–	–	–
COc1cc(C2(C#N)CC2)ccc1-c1ccc2nnc(C(F)(F)F)n2n1 [Compound 22]	> 70	–	16.6	0.6	> 50	–
C[C@@H](Oc1ncc(-c2cn3c(C(F)(F)F)nnc3cn2)cc1F)C(F)(F)F (single isomer, unassigned) [Compound 124]	> 70	> 30	15.9	6.5	–	–
COc1cc(OC(F)(F)F)ccc1-c1ccc2nnc(C3CC(F)(F)C3)n2n1 [Compound 13]	> 70	–	–	–	> 50	–
Fc1cc(OC(F)(F)F)ccc1-c1cn2c(C(F)F)nnc2cn1 [Compound 52]	30 to 70	1 to 15	–	–	–	–

Second part, led by results:

inhibition at 1 µM (human NaV1.6 (hNaV1.6); [3]) [%]	IC50 (CYP1A2) [µM]	clearance [2] [mL/min/kg]	half-life [2] [h]	Structure (SMILES)	inhibition at 1 µM [1] [%]	inhibition at 1 µM (human NaV1.6 (hNaV1.6); [4]) [%]
> 70	–	–	–	Cc1cc(-c2ccc3nnc(C(F)(F)F)n3n2)ccc1OC(F)(F)F [Compound 2]	> 50	–
30 to 70	1 to 15	9.2	3.2	FC(F)(F)Cc1nnc2ccc(-c3ccc(OC(F)(F)F)cc3)nn12 [Compound 6]	> 50	–
> 70	> 30	–	–	C[C@H](Oc1ncc(-c2ccc3nnc(C(F)(F)F)n3n2)cc1F)C(F)(F)F (single isomer, unassigned) [Compound 127]	–	–
30 to 70	1 to 15	–	–	Cc1cc(C(F)(F)F)ccc1-c1cn2c(C(F)(F)F)nnc2cn1 [Compound 73]	–	–
> 70	15 to 30	–	–	COCc1cc(-c2ccc3nnc(C(F)(F)F)n3n2)ccc1OC(F)(F)F [Compound 117]	–	–
> 70	> 30	–	–	COC(F)(F)c1nnc2ccc(-c3cnc(OCC(F)(F)F)c(F)c3)nn12 [Compound 96]	–	–
30 to 70	–	–	–	FC(F)(F)Oc1cccc(-c2ccc3nnc(C(F)(F)F)n3n2)c1 [Compound 17]	< 50	–
> 70	15 to 30	29	0.36	FC(F)(F)COc1ccc(-c2ccc3nnc(C(F)(F)F)n3n2)cn1 [Compound 30]	> 50	–
< 30	–	–	–	Fc1ccc(OC(F)(F)F)cc1-c1ccc2nnc(C(F)(F)F)n2n1 [Compound 18]	< 50	–
> 70	1 to 15	–	–	CC(C)Oc1ccc(-c2cn3c(C(F)(F)F)nnc3cn2)cc1 [Compound 77]	–	–
> 70	–	52.3	0.49	COc1cc(OC(F)(F)F)ccc1-c1ccc2nnc(C(F)F)n2n1 [Compound 16]	> 50	–
30 to 70	–	–	–	FC(F)(F)COc1ccc(-c2ccc3nnc(C4CC4)n3n2)cn1 [Compound 8]	> 50	–
< 30	–	–	–	Fc1c(OC(F)(F)F)cccc1-c1ccc2nnc(C(F)(F)F)n2n1 [Compound 19]	< 50	–
30 to 70	> 30	39.8	0.8	FC1(F)CC(Oc2ccc(-c3ccc4nnc(C(F)(F)F)n4n3)cc2)C1 [Compound 59]	–	–
> 70	–	1.4	21.9	Fc1cc(OC(F)(F)F)ccc1-c1ccc2nnc(C(F)(F)F)n2n1 [Compound 23]	> 50	–
30 to 70	> 30	–	–	Fc1cc(-c2cn3c(C(F)(F)F)nnc3cn2)cnc1OCC(F)(F)F [Compound 78]	–	–
> 70	> 30	13.9	1.9	Fc1cc(-c2ccc3nnc(C(F)(F)F)n3n2)cnc1OCC(F)(F)F [Compound 107]	–	–
> 70	> 30	31	0.55	FC1(F)CC(Oc2ccc(-c3ccc4nnc(C(F)(F)F)n4n3)cn2)C1 [Compound 65]	–	–
> 70	15 to 30	8.8	10.2	Cc1cc(OC(F)(F)F)ccc1-c1cn2c(C(F)(F)F)nnc2cn1 [Compound 63]	–	–
> 70	1 to 15	–	–	Cc1cc(OC(F)(F)F)ccc1-c1ccc2nnc(C(F)F)n2n1 [Compound 136]	–	–
30 to 70	> 30	–	–	FC(F)(F)Oc1ccc(-c2ccc3nnc(C[C@H]4CCCCO4)n3n2)cc1 (single isomer, unassigned) [Compound 42]	–	–
> 70	–	32.8	1.4	FC1(F)CC(c2nnc3ccc(-c4ccc(OC(F)(F)F)cc4)nn23)C1 [Compound 14]	> 50	–
> 70	–	–	–	COc1cc(OC(F)(F)F)ccc1-c1ccc2nnc(C3CC3(F)F)n2n1 (stereo not shown) [Compound 15]	> 50	–
30 to 70	–	–	–	FC(F)(F)Oc1ccc(-c2ccc3nnc(CC4CCOC4)n3n2)cc1 (stereo not shown) [Compound 10]	< 50	–
–	1 to 15	–	–	FC(F)(F)Oc1ccc(-c2ccc3nnc(C(F)(F)F)n3n2)cc1 [Compound 108]	–	–
30 to 70	–	–	–	FC(F)(F)COc1ccc(-c2ccc3nnc(CC(F)(F)F)n3n2)cn1 [Compound 7]	< 50	–
